# Earlier results as cited in patent publication US12310930B2 (YS PHARMTECH, priority 2016, dated 2025).
# Read-outs that look alike come from different tables or passages of the source.
structure (smiles),measurement,setting,value
"CNCC(O)c1ccc(O)c(O)c1 (single isomer, unassigned; (-)) [epinephrine, (−)-3,4-Dihydroxy-α-[(methylamino)methyl]benzyl alcohol]",association constant (K),"pH 3.5, aqueous solution",488 M⁻¹
same,association constant (K),"pH 5.5, aqueous solution",111 M⁻¹
